In experiment [1] the test system is vacuole-to-vacuole fusion. Put plainly: in vitro vacuole-to-vacuole fusion assay. The class given is biochemical, Saccharomyces cerevisiae. The note with it: for effect on in vitro vacuole-to-vacuole fusion (in words): added to standard reaction, Figs. 5, 7 A or data not shown; for effect on inter-vacuole fusion: Fig. 7 A.
The next experiment relates to isolated vacuoles. Kind of experiment: microscopic in vitro fusion assay with CDCFDA-labeled vacuoles. More on the design: species or system Saccharomyces cerevisiae. Conditions: standard fusion reaction, 120 min; for vacuole fusion / morphology seen by fluorescence microscopy: 20 uM, Fig. 6 D, E, G, H.
A further experiment concerns G-proteins. The note with it: cited from earlier work; for stimulation of G-proteins in vitro: ref Oppi et al., 1992.

With `N#CC(C#N)=NNc1cccc(Cl)c1` [CCCP, carbonyl cyanide m-chlorophenyl-hydrazone], the “effect on in vitro vacuole-to-vacuole fusion (in words)” value (shortened to “effect … (in words)”) in experiment [1] (25C, 120 min) was “inhibited vacuole fusion in vitro”. Further, the “vacuole fusion / morphology seen by fluorescence microscopy” value (“vacuole fusion / morphology seen” for short) in the experiment on isolated vacuoles is on record as “blocked vacuole fusion”.
With `Nc1nc2c(ncn2[C@@H]2O[C@H](COP(=O)(O)OP(=O)(O)OP(O)(O)=S)[C@@H](O)[C@H]2O)c(=O)[nH]1` [GTP3,S, Guanosine 5'-0-(3-thiotriphosphate)], in the experiment with isolated vacuoles (1.0 mM, Fig. 6 F), the “vacuole fusion seen by fluorescence microscopy” value is listed as “fusion was largely inhibited”.
Consider `NC[C@@H]1O[C@H](O[C@H]2[C@@H](O)[C@H](O[C@@H]3[C@@H](O)[C@H](N)C[C@H](N)[C@H]3O[C@H]3O[C@H](CN)[C@@H](O)[C@H](O)[C@H]3N)O[C@@H]2CO)[C@H](N)[C@@H](O)[C@@H]1O` [Neomycin], for which the “concentration that blocks inter-vacuole fusion” value in experiment [1] (standard reaction, 25C, 120 min, Fig. 5 A) was found to be 0.2 mM. Further, the “vacuole fusion seen by fluorescence microscopy” value in the experiment on isolated vacuoles (0.6 mM, Fig. 6 C) is recorded as “blocked vacuole fusion”.
For the compound `CO/C1=C\C(C)=C\[C@@H](C)[C@@H](O)[C@@H](C)C/C(C)=C/C=C/[C@H](OC)[C@@H]([C@@H](C)[C@@H](O)[C@H](C)[C@@]2(O)C[C@@H](O)[C@H](C)[C@@H](C(C)C)O2)OC1=O` [bafilomycin Al], the “effect … (in words)” value in experiment [1] (25C, 120 min) is on record as “inhibited vacuole fusion in vitro”. For the same compound, in the experiment with isolated vacuoles, the “vacuole fusion / morphology seen” value was “blocked vacuole fusion”.
For the compound `F` [fluoride], the “effect … (in words)” value in experiment [1] (25C, 120 min) was “inhibitory”.
Turning to INLQALALAALAQALL-NH2 [Mas7[Q4;Q11]], the “stimulation of G-proteins” value in the experiment on G-proteins (ref Higashijima, T., personal communication) is on record as “does not stimulate G-proteins”. In experiment [1] (both compounds added together, data not shown), the “relief of the inhibition caused by mas7” value is on record as “did not relieve”. Further, the “effect on inter-vacuole fusion” value in experiment [1] (concentrations up to 50 uM, standard reaction) is “did not inhibit”; in experiment [1] (very high concentration, 100 uM, standard reaction) it was “did inhibit”. Further, the “vacuole fusion / morphology seen” value with isolated vacuoles is reported as “only a weak influence”.
Consider LKIALNLKALIAAK-NH2 [MAS-PEP2], for which, in the experiment with G-proteins, the “stimulation of G-proteins in vitro” value is on record as “do not stimulate G-proteins in vitro”. In addition, in experiment [1] (25C, 120 min), the “effect … (in words)” value was “inactive in the fusion assay”.
For the compound LNAKLKAIALALIK-NH2 [mas-PEP7], the “stimulation of G-proteins in vitro” value in the experiment with G-proteins is reported as “do not stimulate G-proteins in vitro”. The “effect … (in words)” value in experiment [1] (25C, 120 min) was “inactive in the fusion assay”.
In the case of Lithium, in experiment [1] (25C, 120 min), the “effect … (in words)” value is “did not influence the fusion reactions”.
Turning to NILALAKALIKALK-NH2 [mas-PEP8], in the experiment on G-proteins, the “stimulation of G-proteins in vitro” value was “potent G-protein activators”.
As for Triton X-100, the “influence on the inhibition of fusion by mastoparan” value in experiment [1] (0-30 ug/ml plus 20 uM mastoparan, Fig. 8) was “did not influence the effects of mastoparan on fusion”. Besides, in experiment [1] (added at 0.01%, data not shown), the “fusion in standard fusion reactions” value is listed as “no fusion could be observed”. The “effect on vacuole fusion” value in experiment [1] (detergent control, up to highest concentration tested, 30 ug/ml, Fig. 8) is “did not inhibit vacuole fusion”.
On to benzalkonium chloride [BAC], for which the “concentration of maximal inhibition of inter-vacuolar fusion” value in experiment [1] (alone in standard fusion assay, Fig. 8) is 10 #g/ml.
In the case of mastoparan, the “effect … (in words)” value in experiment [1] (25C, 120 min) is “inhibited”.
